Tested on: Haematococcus pluvialis (Strain 2)
Assay: % cell lysis, culture dry weight and % carotenoid by UV method in 230 L reactors, salt treatment (Example 12)
Format: cell-based
Details: for Culture Dry Weight in 230L reactors: NaCl 2 ppt (1st 2 ppt column)
Procedure: This test was done side by side in flasks (0.1 L) and in reactors located in a greenhouse operating in conditions: reactor volume of 230 L; Daily PAR of 20 mol m^−2 d^−1; pH (not measured); and paddlewheel speed of 21 RPM. […] The flask cultures were mixed by shaking at 140 rpm and received 300-400 μmol/m^2 s of photosynthetically active radiation (PAR) in 12 hour light cycles and constant supply of 2.5% CO2. The motility of the culture was monitored by visual observation under a microscope. […] Nine 230 L reactors were also seeded with culture from bioreactor #2410 on the same day as the flasks and brought to 2 ppt concentration of salt. Once motility of the cells was reduced to <10% (day 3 of culture for flasks and day 2 for 230 L reactors) the level of salt was elevated to a point between 4-18 ppt and compared to the culture in two reactors remaining at 2 ppt salt. Flasks and 230 L reactors were monitored for percentage of cell lysis via visual observation under a microscope, culture dry weight (biomass accumulation in g/L), and percentage of chytrid infection via visual observation under a microscope. Carotenoid production, a proxy for determining astaxanthin, was quantified every other day of culture in the 230 L reactors using the UV method.

In the case of `[Cl-].[Na+]` [NaCl, sodium chloride], the “% Cell Lysis in 230L reactors” value (4 ppt, 2 d) is reported as 1.67%, the “% Cell Lysis in 230L reactors” value (4 ppt, 3 d) is reported as 0.00% and the “% Cell Lysis in 230L reactors” value (4 ppt, 4 d) is reported as 0.00%. For the same compound, the “% Cell Lysis in 230L reactors” value (4 ppt, 5 d) was 3.33%, the “% Cell Lysis in 230L reactors” value (4 ppt, 6 d) was 0.00% and the “% Cell Lysis in 230L reactors” value (4 ppt, 7 d) was 30.00%. For the same compound, the “% Cell Lysis in 230L reactors” value (4 ppt, 8 d) was 23.33%, the “% Cell Lysis in 230L reactors” value (4 ppt, 9 d) was 13.33% and the “% Cell Lysis in 230L reactors” value (4 ppt, 10 d) was 11.67%. The “% Cell Lysis in 230L reactors” value (4 ppt, 11 d) was 5.00%, the “% Cell Lysis in 230L reactors” value (4 ppt, 12 d) was 6.67% and the “% Cell Lysis in 230L reactors” value (5 ppt, 2 d) was 3.18%. For the same compound, the “% Cell Lysis in 230L reactors” value (5 ppt, 3 d) was 5.00%, the “% Cell Lysis in 230L reactors” value (5 ppt, 4 d) was 3.33% and the “% Cell Lysis in 230L reactors” value (5 ppt, 5 d) was 1.67%. The “% Cell Lysis in 230L reactors” value (5 ppt, 6 d) was 21.67%, the “% Cell Lysis in 230L reactors” value (5 ppt, 7 d) was 10.00% and the “% Cell Lysis in 230L reactors” value (5 ppt, 8 d) was 1.67%. The “% Cell Lysis in 230L reactors” value (5 ppt, 9 d) was 5.00%, the “% Cell Lysis in 230L reactors” value (5 ppt, 10 d) was 5.00% and the “% Cell Lysis in 230L reactors” value (5 ppt, 11 d) was 8.33%. For the same compound, the “% Cell Lysis in 230L reactors” value (5 ppt, 12 d) was 3.33%, the “% Cell Lysis in 230L reactors” value (6 ppt, 2 d) was 0.00% and the “% Cell Lysis in 230L reactors” value (6 ppt, 3 d) was 0.00%. The “% Cell Lysis in 230L reactors” value (6 ppt, 4 d) was 8.33%, the “% Cell Lysis in 230L reactors” value (6 ppt, 5 d) was 0.00% and the “% Cell Lysis in 230L reactors” value (6 ppt, 6 d) was 13.33%. The “% Cell Lysis in 230L reactors” value (6 ppt, 7 d) was 18.33%, the “% Cell Lysis in 230L reactors” value (6 ppt, 8 d) was 1.67% and the “% Cell Lysis in 230L reactors” value (6 ppt, 9 d) was 6.67%. For the same compound, the “% Cell Lysis in 230L reactors” value (6 ppt, 10 d) was 1.67%, the “% Cell Lysis in 230L reactors” value (6 ppt, 11 d) was 6.67% and the “% Cell Lysis in 230L reactors” value (6 ppt, 12 d) was 5.00%. The “% Cell Lysis in 230L reactors” value (7 ppt, 2 d) was 0.00%, the “% Cell Lysis in 230L reactors” value (7 ppt, 3 d) was 0.00% and the “% Cell Lysis in 230L reactors” value (7 ppt, 4 d) was 3.33%. The “% Cell Lysis in 230L reactors” value (7 ppt, 5 d) was 1.67%, the “% Cell Lysis in 230L reactors” value (7 ppt, 6 d) was 18.33% and the “% Cell Lysis in 230L reactors” value (7 ppt, 7 d) was 8.33%. The “% Cell Lysis in 230L reactors” value (7 ppt, 8 d) was 1.67%, the “% Cell Lysis in 230L reactors” value (7 ppt, 9 d) was 6.67% and the “% Cell Lysis in 230L reactors” value (7 ppt, 10 d) was 6.67%. For the same compound, the “% Cell Lysis in 230L reactors” value (7 ppt, 11 d) was 11.67%, the “% Cell Lysis in 230L reactors” value (7 ppt, 12 d) was 5.00% and the “% Cell Lysis in 230L reactors” value (8 ppt, 2 d) was 3.18%. The “% Cell Lysis in 230L reactors” value (8 ppt, 3 d) was 3.33%, the “% Cell Lysis in 230L reactors” value (8 ppt, 4 d) was 0.00% and the “% Cell Lysis in 230L reactors” value (8 ppt, 5 d) was 3.33%. For the same compound, the “% Cell Lysis in 230L reactors” value (8 ppt, 6 d) was 16.67%, the “% Cell Lysis in 230L reactors” value (8 ppt, 7 d) was 5.00% and the “% Cell Lysis in 230L reactors” value (8 ppt, 8 d) was 0.00%. For the same compound, the “% Cell Lysis in 230L reactors” value (8 ppt, 9 d) was 6.67%, the “% Cell Lysis in 230L reactors” value (8 ppt, 10 d) was 15.00% and the “% Cell Lysis in 230L reactors” value (8 ppt, 11 d) was 11.67%. The “% Cell Lysis in 230L reactors” value (8 ppt, 12 d) was 3.33%, the “% Cell Lysis in 230L reactors” value (10 ppt, 2 d) was 0.00% and the “% Cell Lysis in 230L reactors” value (10 ppt, 3 d) was 5.00%. For the same compound, the “% Cell Lysis in 230L reactors” value (10 ppt, 4 d) was 6.67%, the “% Cell Lysis in 230L reactors” value (10 ppt, 5 d) was 36.67% and the “% Cell Lysis in 230L reactors” value (10 ppt, 6 d) was 31.67%. The “% Cell Lysis in 230L reactors” value (10 ppt, 7 d) was 3.33%, the “% Cell Lysis in 230L reactors” value (10 ppt, 8 d) was 0.00% and the “% Cell Lysis in 230L reactors” value (10 ppt, 9 d) was 5.00%. For the same compound, the “% Cell Lysis in 230L reactors” value (10 ppt, 10 d) was 3.33%, the “% Cell Lysis in 230L reactors” value (10 ppt, 11 d) was 6.67% and the “% Cell Lysis in 230L reactors” value (10 ppt, 12 d) was 5.00%. The “% Cell Lysis in 230L reactors” value (18 ppt, 2 d) was 0.00%, the “% Cell Lysis in 230L reactors” value (18 ppt, 3 d) was 3.33% and the “% Cell Lysis in 230L reactors” value (18 ppt, 4 d) was 13.33%. For the same compound, the “% Cell Lysis in 230L reactors” value (18 ppt, 5 d) was 5.00%, the “% Cell Lysis in 230L reactors” value (18 ppt, 6 d) was 26.67% and the “% Cell Lysis in 230L reactors” value (18 ppt, 7 d) was 20.00%. The “% Cell Lysis in 230L reactors” value (18 ppt, 8 d) was 1.67%, the “% Cell Lysis in 230L reactors” value (18 ppt, 9 d) was 8.33% and the “% Cell Lysis in 230L reactors” value (18 ppt, 10 d) was 5.00%. The “% Cell Lysis in 230L reactors” value (18 ppt, 11 d) was 1.67%, the “% Cell Lysis in 230L reactors” value (18 ppt, 12 d) was 3.33% and the cell lysis (230 L reactors, all treatments except 10 ppt) was “below 30%”. The “Culture Dry Weight in 230L reactors” value (time 0 d) was 0.030 g/L, the “Culture Dry Weight in 230L reactors” value (time 1 d) was 0.042 g/L and the “Culture Dry Weight in 230L reactors” value (time 2 d) was 0.065 g/L. The “Culture Dry Weight in 230L reactors” value (time 4 d) was 0.145 g/L, the “Culture Dry Weight in 230L reactors” value (time 5 d) was 0.228 g/L and the “Culture Dry Weight in 230L reactors” value (time 6 d) was 0.173 g/L. For the same compound, the “Culture Dry Weight in 230L reactors” value (time 7 d) was 0.185 g/L, the “Culture Dry Weight in 230L reactors” value (time 8 d) was 0.273 g/L and the “Culture Dry Weight in 230L reactors” value (time 9 d) was 0.145 g/L. The “Culture Dry Weight in 230L reactors” value (time 10 d) was 0.220 g/L and the “Culture Dry Weight in 230L reactors” value (time 11 d) was 0.145 g/L.

Source: patent US20160281050A1, “METHODS FOR TREATING A CULTURE OF HAEMATOCOCCUS PLUVIALIS FOR CONTAMINATION USING SALT AND HYDROGEN PEROXIDE” (HELIAE DEVELOPMENT LLC, priority 2015, published 2016)
